# Measurements taken from US20140323721A1, “HETEROCYCLIC COMPOUNDS AND USES THEREOF” (INTELLIKINE, LLC, priority 2011, published 2014).
# Read-outs that look alike come from different tables or passages of the source.
# Assays:
# PI3K β = PI3K β (Homo sapiens, UniProt P42338); assay: PI 3-Kinase HTRF inhibition assay, PI3K β; format: biochemical
# Description: (§1) Commercial kits or systems for assaying PI3-K activities are available. The commercially available kits or systems can be used to screen for inhibitors and/or agonists of PI3-Ks including but not limited to PI 3-Kinase α, β, δ, and γ. Anr exemplary system is PI 3-Kinase (human) HTRF™ Assay from Upstate. […] Briefly, the assay is a time resolved FRET assay that indirectly measures PIP3 product formed by the activity of a PI3-K. The kinase reaction is performed in a microtitre plate (e.g., a 384 well microtitre plate). The total reaction volume is approximately 20 ul per well. In the first step, each well receives 2 ul of test compound in 20% dimethylsulphoxide resulting in a 2% DMSO final concentration. Next, approximately 14.5 ul of a kinase/PIP2 mixture (diluted in 1× reaction buffer) is added per well for a final concentration of 0.25-0.3 ug/ml kinase and 10 μM PIP2. The plate is sealed and incubated for 15 minutes at room temperature. To start the reaction, 3.5 ul of ATP (diluted in 1× reaction buffer) is added per well for a final concentration of 10 μM ATP. The plate is sealed and incubated for 1 hour at room temperature. The reaction is stopped by adding 5 ul of Stop Solution per well and then 5 ul of Detection Mix is added per well. The plate is sealed, incubated for 1 hour at room temperature, and then read on an appropriate plate reader. Data is analyzed and IC50s are generated using GraphPad Prism 5. For PI3K α, β, δ, and γ, the nM conentration of inhibitor to reach IC50 is provided. […] Similar assays, and others known in the art, can be used to measure the percent inhibition of other kinases, including but not limited to PI3K class II kinases, phosphoinositide 4 kinases (PI4K), and phosphoinositide 5 kinases (PI5K).
# PI3K δ = PI3K δ (Homo sapiens, UniProt O00329); assay: PI 3-Kinase HTRF inhibition assay, PI3K δ; format: biochemical; settings: in vitro
# Chain of PI3K δ (O00329 whole entry): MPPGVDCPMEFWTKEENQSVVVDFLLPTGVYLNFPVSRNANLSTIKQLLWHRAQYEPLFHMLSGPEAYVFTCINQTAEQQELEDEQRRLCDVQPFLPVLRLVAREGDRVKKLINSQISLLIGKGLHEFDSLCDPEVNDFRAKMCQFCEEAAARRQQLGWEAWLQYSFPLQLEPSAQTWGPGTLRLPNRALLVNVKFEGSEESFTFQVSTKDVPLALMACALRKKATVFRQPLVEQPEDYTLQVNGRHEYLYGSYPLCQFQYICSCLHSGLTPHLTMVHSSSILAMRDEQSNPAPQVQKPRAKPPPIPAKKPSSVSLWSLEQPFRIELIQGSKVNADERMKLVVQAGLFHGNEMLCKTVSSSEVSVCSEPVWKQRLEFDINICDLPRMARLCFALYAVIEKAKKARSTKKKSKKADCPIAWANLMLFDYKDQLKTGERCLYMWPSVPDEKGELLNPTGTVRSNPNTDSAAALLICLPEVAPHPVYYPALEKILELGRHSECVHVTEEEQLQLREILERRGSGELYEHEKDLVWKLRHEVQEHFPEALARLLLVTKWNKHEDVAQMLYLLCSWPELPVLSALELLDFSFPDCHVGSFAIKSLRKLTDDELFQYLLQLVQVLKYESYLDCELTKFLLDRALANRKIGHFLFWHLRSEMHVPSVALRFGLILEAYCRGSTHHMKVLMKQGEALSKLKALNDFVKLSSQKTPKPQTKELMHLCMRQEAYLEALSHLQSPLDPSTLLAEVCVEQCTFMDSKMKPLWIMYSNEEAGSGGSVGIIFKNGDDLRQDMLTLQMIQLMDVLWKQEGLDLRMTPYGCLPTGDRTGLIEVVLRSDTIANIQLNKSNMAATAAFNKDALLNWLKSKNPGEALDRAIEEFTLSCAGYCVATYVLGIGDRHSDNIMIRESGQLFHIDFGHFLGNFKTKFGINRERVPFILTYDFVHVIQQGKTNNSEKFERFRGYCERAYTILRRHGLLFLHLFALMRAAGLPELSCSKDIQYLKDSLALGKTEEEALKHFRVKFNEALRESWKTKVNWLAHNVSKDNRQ
# Chain of PI3K δ (P27986 whole entry partner): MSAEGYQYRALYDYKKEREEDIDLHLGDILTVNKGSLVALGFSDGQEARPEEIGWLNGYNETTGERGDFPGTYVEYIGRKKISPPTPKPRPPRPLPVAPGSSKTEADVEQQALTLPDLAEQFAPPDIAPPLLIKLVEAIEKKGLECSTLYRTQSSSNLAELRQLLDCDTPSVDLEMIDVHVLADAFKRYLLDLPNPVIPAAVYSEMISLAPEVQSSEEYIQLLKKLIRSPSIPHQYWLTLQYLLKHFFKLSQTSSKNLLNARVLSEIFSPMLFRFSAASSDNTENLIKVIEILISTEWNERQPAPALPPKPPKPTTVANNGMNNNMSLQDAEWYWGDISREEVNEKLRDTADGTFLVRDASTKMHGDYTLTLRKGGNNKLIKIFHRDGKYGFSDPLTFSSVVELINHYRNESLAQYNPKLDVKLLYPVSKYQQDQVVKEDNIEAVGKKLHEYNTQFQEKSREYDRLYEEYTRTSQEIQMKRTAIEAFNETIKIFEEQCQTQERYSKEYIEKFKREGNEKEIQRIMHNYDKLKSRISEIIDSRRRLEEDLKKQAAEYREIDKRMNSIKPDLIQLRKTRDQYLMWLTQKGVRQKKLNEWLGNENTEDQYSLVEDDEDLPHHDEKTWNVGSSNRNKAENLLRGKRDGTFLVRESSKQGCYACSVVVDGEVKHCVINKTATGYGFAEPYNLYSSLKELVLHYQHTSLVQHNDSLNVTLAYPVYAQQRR
# Description: as §1
# PI3K α = PI3K α (Homo sapiens, UniProt P42336); assay: PI 3-Kinase HTRF inhibition assay, PI3K α; format: biochemical; settings: in vitro
# Chain of PI3K α (P42336 whole entry): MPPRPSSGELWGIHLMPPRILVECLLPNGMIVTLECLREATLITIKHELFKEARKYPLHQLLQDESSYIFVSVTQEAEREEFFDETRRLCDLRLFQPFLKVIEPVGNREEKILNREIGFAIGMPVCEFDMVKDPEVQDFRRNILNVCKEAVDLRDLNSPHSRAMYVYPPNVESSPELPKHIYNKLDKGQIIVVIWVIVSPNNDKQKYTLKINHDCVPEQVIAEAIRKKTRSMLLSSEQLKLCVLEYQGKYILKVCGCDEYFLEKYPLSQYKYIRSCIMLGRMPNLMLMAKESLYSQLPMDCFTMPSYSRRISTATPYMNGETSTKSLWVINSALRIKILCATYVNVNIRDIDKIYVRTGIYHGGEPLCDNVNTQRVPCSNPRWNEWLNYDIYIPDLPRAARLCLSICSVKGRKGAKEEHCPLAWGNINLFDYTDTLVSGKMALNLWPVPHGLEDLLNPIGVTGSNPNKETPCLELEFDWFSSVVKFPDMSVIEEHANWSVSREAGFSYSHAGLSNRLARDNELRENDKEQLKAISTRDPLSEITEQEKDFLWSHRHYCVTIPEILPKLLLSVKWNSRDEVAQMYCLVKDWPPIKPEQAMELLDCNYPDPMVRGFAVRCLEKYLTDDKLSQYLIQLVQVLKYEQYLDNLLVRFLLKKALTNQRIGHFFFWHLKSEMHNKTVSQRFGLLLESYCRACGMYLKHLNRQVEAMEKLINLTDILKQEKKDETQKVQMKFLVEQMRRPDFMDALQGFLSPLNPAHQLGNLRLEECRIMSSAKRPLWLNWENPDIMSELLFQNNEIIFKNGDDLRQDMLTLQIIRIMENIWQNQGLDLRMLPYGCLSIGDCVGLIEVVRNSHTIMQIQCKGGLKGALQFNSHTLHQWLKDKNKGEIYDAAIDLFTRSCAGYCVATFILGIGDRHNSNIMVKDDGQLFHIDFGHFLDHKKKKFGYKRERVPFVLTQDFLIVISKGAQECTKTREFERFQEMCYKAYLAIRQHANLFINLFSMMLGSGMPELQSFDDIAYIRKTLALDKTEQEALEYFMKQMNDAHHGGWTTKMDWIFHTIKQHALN
# Chain of PI3K α (P27986 whole entry partner): as the sequence (P27986 whole entry partner) above
# Description: as §1
# PI3K γ = PI3K γ (Homo sapiens, UniProt P48736); assay: PI 3-Kinase HTRF inhibition assay, PI3K γ; format: biochemical; settings: in vitro
# Chain of PI3K γ (P48736 whole entry): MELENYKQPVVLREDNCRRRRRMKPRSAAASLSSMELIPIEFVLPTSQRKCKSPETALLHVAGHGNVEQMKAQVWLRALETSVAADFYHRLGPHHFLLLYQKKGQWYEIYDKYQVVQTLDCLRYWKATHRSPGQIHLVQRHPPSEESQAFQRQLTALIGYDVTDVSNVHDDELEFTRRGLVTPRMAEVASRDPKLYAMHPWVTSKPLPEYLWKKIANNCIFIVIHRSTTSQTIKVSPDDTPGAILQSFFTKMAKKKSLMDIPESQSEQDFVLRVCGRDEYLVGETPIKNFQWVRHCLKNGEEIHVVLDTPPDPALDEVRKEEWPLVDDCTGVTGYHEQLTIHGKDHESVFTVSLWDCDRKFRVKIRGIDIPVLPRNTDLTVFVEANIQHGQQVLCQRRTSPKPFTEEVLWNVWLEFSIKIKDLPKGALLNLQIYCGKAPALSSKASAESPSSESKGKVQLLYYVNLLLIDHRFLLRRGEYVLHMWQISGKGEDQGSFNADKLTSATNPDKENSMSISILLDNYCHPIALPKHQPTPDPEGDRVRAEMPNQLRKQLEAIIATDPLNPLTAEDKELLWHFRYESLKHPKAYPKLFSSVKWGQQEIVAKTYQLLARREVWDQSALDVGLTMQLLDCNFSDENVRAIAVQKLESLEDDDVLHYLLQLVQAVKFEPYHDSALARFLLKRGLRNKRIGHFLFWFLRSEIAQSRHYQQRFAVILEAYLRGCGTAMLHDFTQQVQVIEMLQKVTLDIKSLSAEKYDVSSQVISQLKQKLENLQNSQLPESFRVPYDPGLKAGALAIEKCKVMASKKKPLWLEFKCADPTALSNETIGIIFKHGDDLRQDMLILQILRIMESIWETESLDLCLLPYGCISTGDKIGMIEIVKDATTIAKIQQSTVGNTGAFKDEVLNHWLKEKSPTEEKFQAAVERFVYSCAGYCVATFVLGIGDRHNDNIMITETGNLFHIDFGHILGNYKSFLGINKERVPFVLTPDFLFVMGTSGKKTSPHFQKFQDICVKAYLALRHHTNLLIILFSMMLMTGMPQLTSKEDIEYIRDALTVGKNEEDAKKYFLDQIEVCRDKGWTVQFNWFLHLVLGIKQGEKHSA
# MDA-MB-361 = MDA-MB-361 proliferation; format: cell-based; settings: Homo sapiens; in vitro IC50, MDA-MB-361 cells
# Description: The ability of one or more subject compounds to inhibit tumor cell line proliferation is determined according to standard procedures known in the art. For instance, an in vitro cellular proliferation assay can be performed to measure the metabolic activity of live cells. The assay is performed in a 96 well microtiter plate using Alamar Blue reduction. Human tumor cell lines are obtained from ATCC (e.g., MCF7, U-87 MG, MDA-MB-468, PC-3), grown to confluency in T75 flasks, trypsinized with 0.25% trypsin, washed one time with Tumor Cell Media (DMEM+10% FBS), and plated in 90 ul at 5,000 cells/well in Tumor Cell Media. A compound disclosed herein is diluted in Tumor Cell Media and added in a 10 ul volume. Plates are incubated for 72 hours at 37 C and 5% CO2. A volume of 10 uL of Alamar Blue reagent is added to each well and plates are incubated for 3 hours at 37 C and 5% CO2. Alamar Blue fluoresce is read at 560 Ex/590 Em, and IC50 values are calculated using GraphPad Prism 5.
# Cells comprising one or more mutations in PI3Kα, including but not limited to breast cancer cells (e.g., MDA-MB-361 and T47D), and cells comprising one or more mutations in PTEN including but not limited to prostate cancer cells (e.g., PC3), are typically grown in cell growth media such as DMEM supplemented with fetal bovine serum and/or antibiotics, and grown to confluency. Cells are then treated with various concentrations of test compound for about 2 hours and subsequently lysed in cell lysis buffer. Lysates are subjected to SDS-PAGE followed by Western blot analysis to detect downstream signaling markers, including but not limited to pAKT(S473), pAKT(T308), pS6, and p4E-BP1. Degree of proliferation (and proliferation inhibition) can also be measured for cells at various doses of compound of the present invention.
# [1] = in vitro, read-out: PI3K β IC50
# Chain of PI3K β (P42338 whole entry): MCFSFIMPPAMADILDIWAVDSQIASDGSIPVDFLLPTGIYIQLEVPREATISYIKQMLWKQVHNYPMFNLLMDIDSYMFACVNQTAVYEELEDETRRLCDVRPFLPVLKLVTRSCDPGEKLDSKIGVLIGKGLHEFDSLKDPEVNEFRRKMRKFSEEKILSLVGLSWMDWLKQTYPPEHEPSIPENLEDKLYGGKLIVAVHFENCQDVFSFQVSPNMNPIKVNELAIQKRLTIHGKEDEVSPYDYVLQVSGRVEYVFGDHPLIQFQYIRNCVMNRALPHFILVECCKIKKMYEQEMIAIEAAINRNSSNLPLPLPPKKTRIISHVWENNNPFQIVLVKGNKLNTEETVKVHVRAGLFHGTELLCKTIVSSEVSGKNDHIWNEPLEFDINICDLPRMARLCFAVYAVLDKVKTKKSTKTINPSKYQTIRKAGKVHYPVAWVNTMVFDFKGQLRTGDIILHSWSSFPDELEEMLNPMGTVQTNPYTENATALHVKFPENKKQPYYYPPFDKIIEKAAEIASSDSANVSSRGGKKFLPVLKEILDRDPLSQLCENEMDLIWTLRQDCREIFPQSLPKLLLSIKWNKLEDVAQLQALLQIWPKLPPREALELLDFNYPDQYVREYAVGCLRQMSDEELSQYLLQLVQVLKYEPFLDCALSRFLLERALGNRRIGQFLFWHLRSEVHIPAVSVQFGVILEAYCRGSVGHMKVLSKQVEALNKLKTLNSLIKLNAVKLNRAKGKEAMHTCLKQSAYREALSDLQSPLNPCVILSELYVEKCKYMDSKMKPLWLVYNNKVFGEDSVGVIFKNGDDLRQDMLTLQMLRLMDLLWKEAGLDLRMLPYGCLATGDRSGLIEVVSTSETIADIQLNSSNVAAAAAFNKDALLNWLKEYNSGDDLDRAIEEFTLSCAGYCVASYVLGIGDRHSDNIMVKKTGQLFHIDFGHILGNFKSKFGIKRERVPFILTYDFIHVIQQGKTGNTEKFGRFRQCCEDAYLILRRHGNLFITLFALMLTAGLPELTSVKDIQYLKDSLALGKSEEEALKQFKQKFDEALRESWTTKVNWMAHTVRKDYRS
# Chain of PI3K β (P27986 whole entry partner): as the sequence (P27986 whole entry partner) above
Compound,IC50 (PI3K β; [1]) [µM],IC50 (PI3K δ) [µM],IC50 (PI3K α) [µM],IC50 (PI3K γ) [µM],IC50 (MDA-MB-361) [µM],IC50 (PI3K β) [µM]
Nc1nc2cc(-c3ccc4ncc(N5C6CCC5COC6)nc4n3)ccc2o1 [Compound 19],> 10,> 10,< 0.1,< 0.1,< 1,
Nc1nc2cc(-c3ccc4ncc(N5CC(N6CC7CCC(C6)O7)C5)nc4n3)ccc2o1 [Compound 20],> 10,> 10,< 1,,,
Nc1nc2cc(-c3ccc4ncc(N5CC6CCC(C5)O6)nc4n3)ccc2o1 [Compound 28],> 10,> 10,< 0.1,< 1,< 1,
Nc1nc2cc(-c3ccc4ncc(N5CC(N6C7CCC6COC7)C5)nc4n3)ccc2o1 [Compound 51],> 10,> 10,,> 10,,
Nc1nc2cc(-c3ccc4ncc(N5CC6CCC(C5)O6)cc4n3)ccc2o1 [Compound 59],> 10,> 10,< 0.1,< 0.1,< 1,
Nc1nc2cc(-c3ccc4ncc(N5CC(N6C7CCC6COC7)C5)cc4n3)ccc2o1 [Compound 67],> 10,,< 0.1,< 1,< 10,
"CC(C)N1CCN(C2CN(c3cnc4ccc(-c5ccc6oc(N)nc6c5)nc4c3)C2)CC1 [Compound 72, 5-(7-(3-(4-isopropylpiperazin-1-yl)azetidin-1-yl)-1,5-naphthyridin-2-yl)benzo[d]oxazol-2-amine]",,,,,< 1,
CCN1CCN(C2CN(c3cnc4ccc(-c5ccc6oc(N)nc6c5)nc4c3)C2)CC1 [Compound 75],,,,,< 1,
Nc1nc2cc(-c3cnc4ccc(N5C6CCC5COC6)nc4c3)ccc2o1 [Compound 81],,> 10,,,,> 10
CN1CCN(C2CN(c3cnc4ccc(-c5ccc6oc(N)nc6c5)nc4c3)C2)CC1(C)C [Compound 83],< 1,< 0.1,< 0.1,< 1,< 0.1,
CN1CCN(C2CN(c3ccc4ncc(-c5ccc6oc(N)nc6c5)cc4n3)C2)CC1 [Compound 84],> 10,> 10,,> 10,,
CC(C)N1CCN(C2CN(c3cnc4ccc(-c5ccc6nc(N)[nH]c6c5)nc4c3)C2)CC1 [Compound 85],> 10,> 10,< 0.1,> 10,,
C[C@@H]1CN(C2CN(c3cnc4ccc(-c5ccc6nc(N)[nH]c6c5)nc4c3)C2)CCN1C [Compound 86],> 10,> 10,< 0.1,> 10,,
CN1CCN(C2CN(c3cnc4ccc(-c5ccc6nc(N)[nH]c6c5)nc4c3)C2)CC1 [Compound 88],> 10,> 10,< 0.1,> 10,,

# Continued, in another order:
IC50 (PI3K β; [1]) [µM],IC50 (PI3K δ) [µM],IC50 (PI3K α) [µM],IC50 (PI3K γ) [µM],IC50 (MDA-MB-361) [µM],Compound,IC50 (PI3K β) [µM]
> 10,> 10,< 1,,,CC1CN(C2CN(c3cnc4ccc(-c5ccc6oc(N)nc6c5)nc4n3)C2)CCO1 (stereo not shown) [Compound 18],
,> 10,< 0.1,< 0.1,,Nc1nc2cc(-c3ccc4ncc(N5C6CCC5COC6)cc4n3)ccc2o1 [Compound 23],
,,,,< 1,CN1CCN(C2CN(c3cnc4ccc(-c5ccc6oc(N)nc6c5)nc4c3)C2)CC1 [Compound 74],
,,,,< 10,CN1CC2CN(c3cnc4ccc(-c5ccc6oc(N)nc6c5)nc4n3)CC2C1 (stereo not shown) [Compound 78],
< 1,< 1,< 0.1,< 1,< 10,CN1CC2CN(c3cnc4ccc(-c5ccc6oc(N)nc6c5)nc4c3)CC2C1 (stereo not shown) [Compound 79],
> 10,> 10,< 0.1,> 10,,CCN1CCN(C2CN(c3cnc4ccc(-c5ccc6nc(N)[nH]c6c5)nc4c3)C2)CC1 [Compound 87],
> 10,> 10,< 0.1,> 10,,C[C@H]1CN(C2CN(c3cnc4ccc(-c5ccc6nc(N)[nH]c6c5)nc4c3)C2)CCN1C [Compound 89],
